From patent publication US20250250284A1, “MACROCYCLE COMPOUNDS USEFUL AS KRAS INHIBITORS” (Hoffmann-La Roche Inc., priority 2022, published 2025)

How the values were obtained:
NCI-H358 cells = experiment: Cell viability assay (Cell Counting Kit-8), KRAS G12C; type: cell-based; details: Homo sapiens, 72 hrs incubation, CCK-8
Description: (§1) The purpose of this cellular assay was to determine the effects of test compounds on the proliferation of human cancer cell lines NCI-H358 (ATCC-CRL5807) cells, AGS (ATCC-CRL-1739) cells, SW620 (ATCC-CCL-227) over a 3-day treatment period by quantifying the amount of NADPH present at endpoint using Cell Counting Kit-8.
(§2) Cells were seeded at 5,000 cells/well (NCI-H358), 2,000 cells/well (AGS) 2,000 cells/well (SW620) in 96-well assay plates (Corning-3699) and incubated overnight. On the day of the assay, diluted compounds were then added in a final concentration of 0.5% DMSO. After 72 hrs incubation, a tenth of the volume of cell counting kit 8 (Dnjindo-CK04) was added into each well. Read the signal (OD450 minus OD650) using EnVision after 2 hrs incubation. IC50 was determined by fitting a 4-parameter sigmoidal concentration response model.

KRAS G12C-BRAF complex = KRAS G12C-BRAF complex (Homo sapiens (Human), UniProt P01116+P62937, G12C); experiment: KRAS-BRAF with CYPA (500 nM) interaction assay (TR-FRET), G12C; type: binding; details: GMPPNP loaded 6His-KRAS, GST-BRAF RBD, 3 hours
KRAS G12C-BRAF complex, sequence (P01116-2 other isoform, or with tags, fused parts or gaps G12C): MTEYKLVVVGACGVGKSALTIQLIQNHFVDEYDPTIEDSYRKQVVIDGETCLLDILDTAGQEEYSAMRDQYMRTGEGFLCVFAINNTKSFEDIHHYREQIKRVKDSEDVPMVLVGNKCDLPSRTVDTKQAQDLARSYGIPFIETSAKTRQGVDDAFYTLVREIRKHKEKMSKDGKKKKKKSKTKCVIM
KRAS G12C-BRAF complex, sequence (P62937 whole entry): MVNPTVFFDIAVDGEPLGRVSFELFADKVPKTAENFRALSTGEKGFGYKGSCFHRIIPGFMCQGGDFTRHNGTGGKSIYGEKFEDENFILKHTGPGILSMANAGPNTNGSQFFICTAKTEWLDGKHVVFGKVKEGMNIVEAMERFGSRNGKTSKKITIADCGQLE
Description: (§3) KRAS-BRAF with CYPA (500 nM) Interaction Assay
(§4) In this example, TR-FRET was also used to measure the compound or compound-CYPA dependent disruption of the KRAS G12C-BRAF complex. This protocol was also used to measure disruption of KRAS G12D or KRAS G12V binding to BRAF by a compound of the invention, respectively. In assay buffer containing 25 mM HEPES PH=7.4 (4-(2-hydroxyethyl)-1-piperazineethanesulfonic acid, Thermo, 15630080), 0.002% Tween20, 0.1% BSA, 100 mM NaCl, 5 mM MgCl2, 10 μM GMPPNP (Guanosine 5′-[β,γ-imido]triphosphate trisodium salt hydrate, Sigma, G0635), tagless CYPA, GMPPNP loaded 6His-KRAS proteins, and GST-BRAF^RBD were mixed in a well of a 384-well assay plate at final concentrations of 50 nM, 6.25 nM and 1 nM, respectively. Compound was present in plate wells as a 16-point 3-fold dilution series starting at a final concentration of 10 μM and incubated for 3 hours. A mixture of MAb Anti-6His-XL665 (Cisbio, 61HISXLB) and Mab anti-GST-TB cryptate (Cisbio, 61GSTTLB) was then added at a final concentration of 6.67 nM and 0.21 nM, respectively, and the plate was incubated for an additional 1.5 hours. TR-FRET signal was read on a PHERstar FSX microplate reader (Ex320 nm, Em 665/615 nm). Compounds that facilitate disruption of the KRAS-BRAF complex were identified as those eliciting a decrease in the TR-FRET ratio relative to DMSO control wells.

AGS cells = experiment: Cell viability assay (Cell Counting Kit-8), KRAS G12D; type: cell-based; details: Homo sapiens, 72 hrs incubation, CCK-8
Description: as §1, §2

[1] = molecular target: KRAS G12V binding to BRAF (Homo sapiens (Human), UniProt P01116+P62937, G12V); experiment: KRAS-BRAF with CYPA (500 nM) interaction assay (TR-FRET), G12V; details: GMPPNP loaded 6His-KRAS, GST-BRAF RBD, 3 hours
KRAS G12V binding to BRAF, sequence (P01116-2 other isoform, or with tags, fused parts or gaps G12V): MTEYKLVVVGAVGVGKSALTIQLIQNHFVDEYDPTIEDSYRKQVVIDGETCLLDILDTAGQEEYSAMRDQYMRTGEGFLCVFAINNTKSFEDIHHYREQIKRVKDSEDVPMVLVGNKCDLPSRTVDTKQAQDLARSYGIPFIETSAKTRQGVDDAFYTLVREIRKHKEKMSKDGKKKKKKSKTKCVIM
KRAS G12V binding to BRAF, sequence (P62937 whole entry): as the sequence (P62937 whole entry) above
Description: as §3, §4

[2] = system: phosphorylation of ERK, KRAS G12D in AGS cells; experiment: pERK inhibition assay, KRAS G12D; type: cell-based; details: Homo sapiens, 4 hours of incubation
Description: (§5) This assay is to measure the ability of test compounds in inhibiting the phosphorylation of ERK, the downstream signaling of KRAS G12C in NCI-H358 cells, KRAS G12D in AGS cells, and KRAS G12V in SW620. NCI-H358 (ATCC-CRL5807) cells, AGS (ATCC-CRL-1739) cells, SW620 (ATCC-CCL-227) cells were all grown and maintained using RPMI-1640 medium (Thermo Fisher Scientific) with 10% fetal bovine serum and 1% penicillin/streptomycin. On the day prior to compound addition, cells were plated in tissue culture-treated 96 well plates (Corning-3699) at a density of 30,000 cell/well, 20,000 cell/well, 30,000 cell/well for NCI-H358, AGS and SW620 respectively, and allowed for attachment overnight. Diluted compounds were then added in a final concentration of 0.5% DMSO. After 4 hours of incubation, the medium was removed, 100 μL of 4% formaldehyde was added, and the assay plates were incubated at room temperature for 20 minutes. The plates were then washed once with phosphate buffered saline (PBS), and permeabilized with 100 μL of chilled methanol for 10 minutes. Non-specific antibody binding to the plates was blocked using 50 μL 1×BSA blocking buffer (Thermo-37520, 10-fold dilution by Phosphate-Buffered Saline Tween (PBST) for at least 1 hour at room temperature.
(§6) The amount of phosphor-ERK was determined using an antibody specific for phosphorylated form of ERK. Primary antibody (pERK, CST-4370, Cell Signaling Technology) was diluted 1:300 in blocking buffer, with 50 μL aliquoted to each well, and incubated overnight at 4° C. Cells was washed five times for 5 minutes with PBST. Secondary antibody (HRP-linked anti-rabbit IgG, CST-7074, Cell Signaling Technology) was diluted 1:1000 in blocking buffer, and 50 μL was added to each well and incubated 1-2 hrs at room temperature. Cells was washed 5 times for 5 minutes with PBST, 100 μL TMB ELISA substrate (abcam-ab171523) were added and gently shake for 20 minutes. 50 μL stop solution (abcam-ab171529) were added, and then read the signal (OD450) by EnVision.
(§7) IC50 was determined by fitting a 4-parameter sigmoidal concentration response model.

[3] = system: phosphorylation of ERK, KRAS G12V in SW620; experiment: pERK inhibition assay, KRAS G12V; type: cell-based; details: Homo sapiens, SW-620; SW620 cells, 4 hours of incubation
Description: as §5, §6, §7

SW620 cells = experiment: Cell viability assay (Cell Counting Kit-8), KRAS G12V; type: cell-based; details: Homo sapiens, SW-620, 72 hrs incubation, CCK-8
Description: as §1, §2

[4] = molecular target: KRAS G12D binding to BRAF (Homo sapiens (Human), UniProt P01116+P62937, G12D); experiment: KRAS-BRAF with CYPA (500 nM) interaction assay (TR-FRET), G12D; details: GMPPNP loaded 6His-KRAS, GST-BRAF RBD, 3 hours
KRAS G12D binding to BRAF, sequence (P01116-2 other isoform, or with tags, fused parts or gaps G12D): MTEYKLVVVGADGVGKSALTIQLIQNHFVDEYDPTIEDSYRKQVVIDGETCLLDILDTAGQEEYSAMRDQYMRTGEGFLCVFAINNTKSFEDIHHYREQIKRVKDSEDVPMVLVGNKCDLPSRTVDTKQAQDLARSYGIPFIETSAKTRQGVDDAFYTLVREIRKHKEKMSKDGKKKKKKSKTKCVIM
KRAS G12D binding to BRAF, sequence (P62937 whole entry): as the sequence (P62937 whole entry) above
Description: as §3, §4

[5] = system: phosphorylation of ERK, KRAS G12C in NCI-H358 cells; experiment: pERK inhibition assay, KRAS G12C; type: cell-based; details: Homo sapiens, 4 hours of incubation
Description: as §5, §6, §7

SMILES	IC50 (NCI-H358 cells) [µM]	IC50 (KRAS G12C-BRAF complex) [µM]	IC50 (AGS cells) [µM]	IC50 [1] [µM]	IC50 [2] [µM]	IC50 [3] [µM]	IC50 (SW620 cells) [µM]	IC50 [4] [µM]	IC50 [5] [µM]
CCn1c(-c2cc(N3CCN(C)CC3)cnc2[C@H](C)OC)c2c3cc(c(F)cc31)-c1csc(n1)C[C@H](NC(=O)[C@H]1C[C@@H]1C)C(=O)N1CCC[C@H](N1)C(=O)OCC(C)(C)C2 (atropisomer, axis not shown; (M)) [Example 1, (1S,2S)—N-[(7S,13S)-21-ethyl-24-fluoro-(20M)-20-[2-[(1S)-1-methoxyethyl]-5-(4-methylpiperazin-1-yl)-3-pyridyl]-17,17-dimethyl-8,14-dioxo-15-oxa-4-thia-9,21,27,28-tetrazapentacyclo[17.5.2.1^2,5.1^9,13.0^22,26]octacosa-1(25),2,5(28),19,22(26),23-hexaen-7-yl]-2-methyl-cyclopropanecarboxamide]	0.018	0.108	4.63	0.211	0.034	0.004	0.009	0.915	0.011
CO[C@@H](C)c1ncc(N2CCN(C)CC2)cc1-c1c2c3cc(c(F)cc3n1CC(F)(F)F)-c1csc(n1)C[C@H](NC(=O)[C@H]1C[C@@H]1C)C(=O)N1CCC[C@H](N1)C(=O)OCC(C)(C)C2 (atropisomer, axis not shown; (M)) [Example 4, (1S,2S)—N-[(7S,13S)-24-fluoro-(20M)-20-[2-[(1S)-1-methoxyethyl]-5-(4-methylpiperazin-1-yl)-3-pyridyl]-17,17-dimethyl-8,14-dioxo-21-(2,2,2-trifluoroethyl)-15-oxa-4-thia-9,21,27,28-tetrazapentacyclo[17.5.2.1^2,5.1^9,13.0^22,26]octacosa-1(25),2,5(28),19,22(26),23-hexaen-7-yl]-2-methyl-cyclopropanecarboxamide]	0.019	0.036	1.27	0.095	0.047	0.007	0.013	0.544	0.02
CO[C@@H](C)c1ncc(N2CCN(C)CC2)cc1C1=C2CC(C)(C)COC(=O)[C@@H]3CCCN(N3)C(=O)[C@@H](NC(=O)[C@H]3C[C@@H]3C)Cc3nc(cs3)-c3ccc(c2c3)C1 (single isomer, unassigned) [Example A122, reference compound]	< 0.001	0.013	0.001	0.025	0.001	< 0.001	< 0.001	0.124	0.002
CO[C@@H](C)c1ncc(N2CCN(CC(F)(F)F)CC2)cc1-c1c2c3cc(c(F)cc3n1CC(F)(F)F)-c1csc(n1)C[C@H](NC(=O)[C@H]1C[C@@H]1C)C(=O)N1CCC[C@H](N1)C(=O)OCC(C)(C)C2 (atropisomer, axis not shown; (M)) [Example 9, (1S,2S)—N-[(7S,13S)-24-fluoro-(20M)-20-[2-[(1S)-1-methoxyethyl]-5-[4-(2,2,2-trifluoroethyl)piperazin-1-yl]-3-pyridyl]-17,17-dimethyl-8,14-dioxo-21-(2,2,2-trifluoroethyl)-15-oxa-4-thia-9,21,27,28-tetrazapentacyclo[17.5.2.1^2,5.1^9,13.0^22,26]octacosa-1(25),2,5(28),19,22(26),23-hexaen-7-yl]-2-methyl-cyclopropanecarboxamide]	0.224	0.09	0.704	0.171	0.161	0.022	0.04	0.66	0.047
CCn1c(-c2cc(N3CCN(CC(F)(F)F)CC3)cnc2[C@H](C)OC)c2c3cc(c(F)cc31)-c1csc(n1)C[C@H](NC(=O)[C@H]1C[C@@H]1C)C(=O)N1CCC[C@H](N1)C(=O)OCC(C)(C)C2 (atropisomer, axis not shown; (M)) [Example 7, (1S,2S)—N-[(7S,13S)-21-ethyl-24-fluoro-(20M)-20-[2-[(1S)-1-methoxyethyl]-5-[4-(2,2,2-trifluoroethyl)piperazin-1-yl]-3-pyridyl]-17,17-dimethyl-8,14-dioxo-15-oxa-4-thia-9,21,27,28-tetrazapentacyclo[17.5.2.1^2,5.1^9,13.0^22,26]octacosa-1(25),2,5(28),19,22(26),23-hexaen-7-yl]-2-methyl-cyclopropanecarboxamide]	0.074	0.192	0.389	0.697	0.115	0.02	0.027	> 10	0.071
CCn1c(-c2cc(N3CCOCC3)cnc2[C@H](C)OC)c2c3cc(c(F)cc31)-c1csc(n1)C[C@H](NC(=O)[C@H]1C[C@@H]1C)C(=O)N1CCC[C@H](N1)C(=O)OCC(C)(C)C2 (atropisomer, axis not shown; (M)) [Example 8, (1S,2S)—N-[(7S,13S)-21-ethyl-24-fluoro-(20M)-20-[2-[(1S)-1-methoxyethyl]-5-morpholino-3-pyridyl]-17,17-dimethyl-8,14-dioxo-15-oxa-4-thia-9,21,27,28-tetrazapentacyclo[17.5.2.1^2,5.1^9,13.0^22,26]octacosa-1(25),2,5(28),19,22(26),23-hexaen-7-yl]-2-methyl-cyclopropanecarboxamide]	0.016	0.16	1.49	0.143	0.056	0.008	0.013	1.67	0.023
